Reference: US20070003536A1, “Topical skin compositions, their preparation, and their use” (priority 2000, published 2007)

Tests used:
RAW 264.7 cells = test: NO production by LPS stimulated RAW 264.7 cells (Griess reagent); format: cell-based, Murine; conditions: for inhibitory effect on nitrite accumulation in culture supernatants: LPS stimulated RAW cells, in words; for Nitrite produced: LPS 100 ng/ml, LPS control 901.7
Procedure: FIG. 8 is a graph showing the effect of samples on NO production by RAW 264.7 cells. Data are expressed as % NO produced compared to the LPS stimulated positive control. L6=Lipochroman-6, NT=Nutriene tocotrienols, TQS=γ-Tocopherylquinone S, VC=Viapure Citrus, SZ=Soybean Zymbiosome, and NPR=NAB Pikea robusta.
Cells in skin can produce nitric oxide (NO) when exposed to UV light, and NO thus produced has the potential to induce age associated changes in skin. This study was performed in order to screen a panel of cosmetics and skin care raw materials for their effect on NO production by RAW 264.7 cells.
Murine RAW 264.7 cells were seeded in a 96 well plate at 1×10^5 cells /well. The plate was incubated overnight. The following day, the cells were treated with the samples at 0.001, 0.01, and 0.1% for 2 hours. The samples are listed below in Table II. Following the exposure period, LPS was added to the wells at 100 ng/ml. The plate was incubated overnight. Equal volumes of culture supernatant and Griess reagent were incubated for 15 min at room temperature and the absorbance at 540 nm was read. The amount of nitrite in the samples was calculated from a standard curve generated with sodium nitrite.

[1] = system: Human dermal fibroblasts (Hs-27); test: Procollagen secretion by fibroblasts, energy booster samples with co-stimuli, Example 4; format: cell-based; conditions: Media line: stimulus alone, no energy booster (Centella asiatica, vitamin C 0.001%; Biodynes EMPP 0.1%); media control 1533
Procedure: (§1) Four new samples that boost cellular energy were tested for their ability to augment extracellular matrix component production in response to Centella and Biodynes. Human dermal fibroblasts were used as these cells actively synthesize extracellular matrix components. In addition to measuring procollagen and elastin levels, hyaluronic acid levels were also measured. Hyaluronic acid is a member of the glycosaminoglycan family of compounds. Glycosaminoglycans make up the ground substance of connective tissue, and along with elastin, help provide elasticity to skin. They also hold water and therefore provide viscosity and hydrating properties.
(§2) Samples were diluted in media. Centella asiatica and vitamin C were prepared at 0.001%. Biodynes EMPP was prepared at 0.1%. Centella asiatica was prepared as an extract in DMSO:ethanol:water at 50:30:20. The “energy booster” samples, Seanergilium algae extract, Thiotaine, Sepitonic, and Phytovityl corn kernel extract, were all prepared in media at 0.01, 0.1, and 1.0%. Human dermal fibroblasts (Hs-27) were plated in 24 well plates and were incubated overnight. The cells were treated with the samples at the concentrations indicated for 2 consecutive days. […]

[2] = system: Human dermal fibroblasts (Hs-27); test: Elastin secretion by fibroblasts, energy booster samples with co-stimuli, Example 4; format: cell-based; conditions: Media line: stimulus alone, no energy booster (Centella asiatica, vitamin C 0.001%; Biodynes EMPP 0.1%)
Procedure: as §1, §2

[3] = system: Human dermal fibroblasts (Hs-27); test: Hyaluronic acid secretion by fibroblasts, energy booster samples with co-stimuli, Example 4; format: cell-based; conditions: Media line: stimulus alone, no energy booster (Centella asiatica, vitamin C 0.001%; Biodynes EMPP 0.1%); media control 1112
Procedure: as §1
Samples were diluted in media. Centella asiatica and vitamin C were prepared at 0.001%. Biodynes EMPP was prepared at 0.1%. Centella asiatica was prepared as an extract in DMSO:ethanol:water at 50:30:20. The “energy booster” samples, Seanergilium algae extract, Thiotaine, Sepitonic, and Phytovityl corn kernel extract, were all prepared in media at 0.01, 0.1, and 1.0%. Human dermal fibroblasts (Hs-27) were plated in 24 well plates and were incubated overnight. […]
Data are expressed as ng hyaluronic acid/ml culture supernatant. The amount of hyaluronic acid in each supernatant was calculated from a standard curve generated using a hyaluronic acid standard supplied with the ELISA kit.

[4] = target: T1, MMP-1 (interstitial collagenase) (Homo sapiens, UniProt P03956); test: MMP-1 activity kit (Amersham); format: biochemical; conditions: samples diluted to 100 mg/ml using PBS; FIG. 5
T1 construct: purchased Amersham
T1 sequence (P03956 100-469): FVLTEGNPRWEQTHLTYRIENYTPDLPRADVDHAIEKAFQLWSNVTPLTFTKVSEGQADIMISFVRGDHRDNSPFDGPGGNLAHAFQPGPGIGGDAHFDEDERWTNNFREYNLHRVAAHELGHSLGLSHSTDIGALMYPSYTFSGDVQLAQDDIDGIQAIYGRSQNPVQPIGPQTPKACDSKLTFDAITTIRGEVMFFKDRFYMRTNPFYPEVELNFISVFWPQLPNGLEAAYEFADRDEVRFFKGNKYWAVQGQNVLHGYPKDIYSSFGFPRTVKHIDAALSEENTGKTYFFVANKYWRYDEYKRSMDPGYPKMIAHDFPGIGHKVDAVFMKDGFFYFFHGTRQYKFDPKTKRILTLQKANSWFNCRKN
From the text: FIG. 5 is a graph showing the effect of samples on MMP-1 activity. The data are expressed as % control MMP-1 activity. The horizontal line denotes 100% activity.
The matrix metalloproteinases (MMP) are a group of zinc dependent enzymes, which degrade varying components of the extracellular matrix in both normal and diseased tissue. MMP-1 (interstitial collagenase) is thought to initiate the cleavage of fibrillar collagen while MMP-9 (gelatinase) digests the denatured collagen fragments generated by MMP-1. The products of MMP-9 digestion are then free to be incorporated into new collagen fibrils. Elastase breaks down elastin. The expression of these enzymes is under strict control and changes as individuals age or are exposed to UV irradiation. Because MMP-1 is involved in initiation of collagen breakdown, it would be advantageous for skin care products to inhibit MMP-1 activity. […] Finally, elastase should be inhibited as to prevent digestion of elastin and the […] of the skin.
Commercially available kits were used for testing the effect of the samples on the activity of the MMPs of interest. For MMP-1, a kit from Amersham was used according to the manufacturer's specifications. For MMP-9 and Elastase, kits from Molecular Probes were used. The samples were prepared in the solvent noted in table I at stock concentrations of 100 mg/ml. […]

| SMILES | inhibitory effect on nitrite accumulation in culture supernatants (RAW 264.7 cells) | inhibitory effect on nitrite accumulation in culture supernatants (RAW 264.7 cells; listed as L6) | Nitrite produced (RAW 264.7 cells; dose 0.001%) | Nitrite produced (RAW 264.7 cells; dose 0.01%) | Nitrite produced (RAW 264.7 cells; dose 0.1%) | procollagen secretion [1] | elastin secretion, % media control elastin [2] | hyaluronic acid secretion [3] | effect on MMP-1 activity [4] |
| --- | --- | --- | --- | --- | --- | --- | --- | --- | --- |
| COc1cc2c(cc1O)CCC(C)(C)O2 [Lipochroman-6] | most potent | more inhibitory activity than do mixed tocopherols | 1006.5 ng/mL | 750.7 ng/mL | 336.7 ng/mL | – | – | – | – |
| O=C1O[C@H]([C@@H](O)CO)C(O)=C1O [Vitamin C, ascorbic acid] | – | – | – | – | – | 1744 ng/mL | 148% | 633 ng hyaluronic acid/ml culture supernatant | – |
| CC1=C(C)C(=O)C(CC[C@](C)(O)CCC[C@H](C)CCC[C@H](C)CCCC(C)C)=CC1=O [g-Tocopherylquinone S] | most potent | – | 754.2 ng/mL | 830.3 ng/mL | 217.9 ng/mL | – | – | – | – |
| COC1=C(OC)C(=O)C(C/C=C(\C)CC/C=C(\C)CC/C=C(\C)CC/C=C(\C)CC/C=C(\C)CC/C=C(\C)CC/C=C(\C)CC/C=C(\C)CC/C=C(\C)CCC=C(C)C)=C(C)C1=O [CoQ10, 2,3,-dimethoxy-5-methyl-6-decaprenyl-benzoquinone] | – | – | – | – | – | – | – | – | most potent activators |
